SMILES strings stand for the structures.

Type in all cases: functional
The subject of assay [1] is Rattus norvegicus. The assay can be described thus: Activity tested for the content of calcium in serum of rat when 18 ug/kg of compound was administered intramuscularly when compared to prednisone.
Assay [2] is filed under the species Rattus norvegicus. The assay is described as follows: Percentage content of phosphor in femur tested in the compound using male ICR rats.
For assay [3], the system named is Rattus norvegicus. The assay can be described thus: Weight of rat femur tested after intramuscular administration of 18 ug/kg of compound when compared to vehicle.
Assay [4] has as its system Rattus norvegicus. The assay can be described thus: Activity of alkaline phosphatase (ALP) tested in serum of rat when 18 ug/kg of compound was administered intramuscularly.
Assay [5] relates to Rattus norvegicus. The assay is described as follows: Weight of rat body tested after intramuscular administration of 18 ug/kg of compound when compared to prednisone.
The species named for assay [6] is Rattus norvegicus. The assay is described as follows: Percentage content of calcium in femur tested in the compound using male ICR rats when compared to vehicle.
The subject of assay [7] is Rattus norvegicus. The assay can be described thus: Weight of rat femur ash tested after intramuscular administration of 18 ug/kg of compound when compared to vehicle.
Assay [8] has as its system Rattus norvegicus. The assay is described as follows: Weight of rat body tested after intramuscular administration of 18 ug/kg of compound when compared to vehicle.
Assay [9] concerns Rattus norvegicus. The assay is described as follows: Activity tested for the content of calcium in serum of rat when 18 ug/kg of compound was administered intramuscularly when compared to vehicle.

As to `CC(C)C[C@H](NC(=O)[C@H](Cc1ccccc1)NC(=O)CNC(=O)CNC(=O)[C@H](Cc1ccc(O)cc1)NC(=O)CCC(=O)O[C@H]1CC[C@H]2[C@@H]3CCc4cc(O)ccc4[C@H]3CC[C@]12C)C(N)=O`, the Ca2+ in the assay on Rattus norvegicus [1] came out at 1.92 mM.

The molecule `C[C@]12CC[C@@H]3c4ccc(O)cc4CC[C@H]3[C@@H]1CCC2O` (single isomer, unassigned) [ESTRADIOL] gave a Phosphor in the assay listed under Rattus norvegicus [2] of 21.85%. For the same molecule, the Weight in the assay with Rattus norvegicus [3] was found to be 35.09 mg; with Rattus norvegicus [5], 35.39 g; in the assay on Rattus norvegicus [7], 22.82 mg. The Ca2+ in the assay with Rattus norvegicus [1] is 2.13 mM; in the assay listed under Rattus norvegicus [6] it was 42.11%. This molecule also had an Activity in the assay on Rattus norvegicus [4] of 44.1.

As to `C[C@]12CC[C@@H]3c4ccc(O)cc4CCC3[C@@H]1CCC2=O` (single isomer, unassigned) [ESTRONE], the Weight was found to be 33.62 g with Rattus norvegicus [8], 33.93 mg in the assay with Rattus norvegicus [3] and 21.69 mg with Rattus norvegicus [7]. In addition, the Phosphor in the assay listed under Rattus norvegicus [2] is reported as 22.02%. The Ca2+ was 2.28 mM in the assay on Rattus norvegicus [9] and 40.83% in the assay listed under Rattus norvegicus [6]. Moreover, in the assay on Rattus norvegicus [4], the Activity was 45.84.

Regarding `CC(C)C[C@H](NC(=O)[C@H](Cc1ccccc1)NC(=O)CNC(=O)CNC(=O)[C@@H](N)Cc1ccc(O)cc1)C(=O)O` [ENKEPHALIN], the Weight in the assay with Rattus norvegicus [8] was determined as 33.29 g; with Rattus norvegicus [7], 21.74 mg. In the assay filed under Rattus norvegicus [2], this molecule had a Phosphor of 22.27%. Besides, in the assay with Rattus norvegicus [4], the Activity is listed as 37.7.

Turning to `C[C@]12C=CC(=O)C=C1CC[C@@H]1[C@@H]2C(=O)C[C@@]2(C)[C@H]1CC[C@]2(O)C(=O)CO` [PREDNISONE], the Weight worked out at 31.89 g with Rattus norvegicus [8], 33.39 mg with Rattus norvegicus [3] and 21.26 mg in the assay on Rattus norvegicus [7]. In addition, the Phosphor in the assay filed under Rattus norvegicus [2] is recorded as 20.87%. The Ca2+ turned out to be 2.42 mM with Rattus norvegicus [9] and 39.54% in the assay filed under Rattus norvegicus [6]. In the assay with Rattus norvegicus [4], this molecule yielded an Activity of 48.7.

For the molecule `CC(C)C[C@H](NC(=O)[C@H](Cc1ccccc1)NC(=O)CNC(=O)CNC(=O)[C@@H](N)Cc1ccc(O)cc1)C(N)=O` [[LEU5]ENKEPHALIN], the Weight in the assay on Rattus norvegicus [8] was 34.16 g; in the assay with Rattus norvegicus [7], 22.8 mg. The same molecule returned a Phosphor in the assay filed under Rattus norvegicus [2] of 22.35%. For the same molecule, the Ca2+ in the assay on Rattus norvegicus [1] is 2.01 mM. The Activity with Rattus norvegicus [4] came out at 34.22.

For the origin of these results see ChEMBL document CHEMBL1144960, “Studies on the synthesis and anti-Osteoporosis of estrogen-GHRPs linkers” (2003).
